Results on one compound are retold here after PMC9609996, “SAR Study and Molecular Mechanism Investigation of Novel Naphthoquinone-furan-2-cyanoacryloyl Hybrids with Antitumor Activity” (Pharmaceutics, 2022).

The test system of one experiment is PC3. The experiment in a line: CCK-8 anti-proliferation assay, PC3. The experiment is classed as cell-based, human. Particulars: mean ± SD; for IC50: 48 h. As for the experimental part:
Human cervical cancer HeLa, human prostate cancer PC3, human colonic carcinoma HCT116, human lung carcinoma A549, human breast cancer MDA-MB-231, mouse melanoma B16, human ovarian cancer SKOV3, human hepatoma Hep3B, and human liver L02 cells were purchased from the Cell Bank of Shanghai Institute of Biochemistry and Cell Biology, Chinese Academy of Sciences (Shanghai, China). The HeLa, A549, B16, PC3, MDA-MB-231, HCT116, and L02 cells were cultured in Dulbecco’s modified Eagle medium (DMEM, Gibco Inc.; Gaithersburg, MD, USA). All cultures were supplied with 10% fetal bovine serum (FBS; YHSM, Beijing, China), 100 IU/mL of penicillin, and 100 μg/mL of streptomycin, and cells were incubated at 37 °C in an atmosphere of 5% CO2.
A CCK-8 kit (MCE, USA) was used to perform a CCK-8 assay. Cells were plated and grown in the 96-well plates for the indicated period (48 h) in the incubator, followed by an incubation with the CCK-8 solutions for 1–4 h. Subsequently, the absorbance (450 nm) was measured by a microplate reader. The median inhibitory concentration (IC50) was determined from the dose–response curve. Experiments were performed in a triplicate.

The target of the next experiment is recombinant STAT3 (Homo sapiens, UniProt P40763). The experiment in a line: Biolayer interferometry (BLI) assay. The settings on record: 5c 7.81 to 250 μM, 25 °C, read-out: binding affinity (KD). As for the experimental part: To confirm that compound 5c is a direct STAT3 inhibitor, a BLI (Biolayer interferometry) analysis was performed. Briefly, recombinant STAT3 with a His-tag was immobilized on SSA biosensors, and the dissociation constants were determined by measuring the binding to serial dilutions of 5c at concentrations ranging from 7.81 to 250 μM (Figure 10A). The signal was collected, and the kinetic affinity was calculated by the software. The steady-state curve reaches saturation (Figure 10B).
recombinant STAT3, sequence (P40763 whole entry): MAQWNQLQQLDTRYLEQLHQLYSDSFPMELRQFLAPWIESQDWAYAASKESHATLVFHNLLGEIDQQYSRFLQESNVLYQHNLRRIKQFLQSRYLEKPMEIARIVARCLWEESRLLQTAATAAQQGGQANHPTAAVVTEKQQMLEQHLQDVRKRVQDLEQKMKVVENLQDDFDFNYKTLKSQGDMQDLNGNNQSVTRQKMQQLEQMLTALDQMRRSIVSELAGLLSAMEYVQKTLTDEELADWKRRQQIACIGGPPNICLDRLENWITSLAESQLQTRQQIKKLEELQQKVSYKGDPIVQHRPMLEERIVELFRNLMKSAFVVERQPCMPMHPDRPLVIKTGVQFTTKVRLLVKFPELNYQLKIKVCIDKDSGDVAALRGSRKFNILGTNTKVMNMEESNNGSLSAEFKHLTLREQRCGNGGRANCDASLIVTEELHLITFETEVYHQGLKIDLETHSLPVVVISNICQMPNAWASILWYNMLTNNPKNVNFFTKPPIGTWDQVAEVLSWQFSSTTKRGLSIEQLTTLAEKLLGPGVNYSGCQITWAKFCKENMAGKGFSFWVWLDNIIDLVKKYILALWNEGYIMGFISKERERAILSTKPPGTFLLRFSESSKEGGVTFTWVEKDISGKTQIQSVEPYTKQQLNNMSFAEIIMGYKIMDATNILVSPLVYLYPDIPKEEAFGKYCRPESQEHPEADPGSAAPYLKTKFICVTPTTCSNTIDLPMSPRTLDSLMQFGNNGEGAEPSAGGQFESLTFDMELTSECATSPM
Purified recombinant STAT3 proteins were biotinylated using the EZ-Link biotinylation reagent (Thermo Fisher Scientific). Briefly, the protein and biotinylation reagent were mixed with a 1:1 molar ratio in PBS at 4 °C. Low biotinylation reagent concentration was applied to avoid protein over-biotinylation. These reaction mixtures were incubated at room temperature for 30 min to allow for the completion of the reaction. Reaction mixture was then dialyzed using 10K MWCO dialysis cassettes (Thermo Fisher Scientific) to remove unreacted biotinylation reagent.
BLI experiments were performed using an OctetRED96 instrument from ForteBio. All assays were run at 25 °C with continuous 1000 RPM shaking. […] The resulting data were analyzed based on a 1:1 binding model from which the kon and koff values were obtained. After, the KD values were calculated.

Experiment [1] concerns HeLa cells. Description: Cell cycle analysis by flow cytometry. The settings on record: 12 μM; 24 h; 10.19% at 0 μM. The experiment is classed as cell-based, human. As for the experimental part: To investigate the effect of compound 5c on the cell cycle distribution, a flow cytometric analysis was performed. HeLa cells were treated with 5c at concentrations of 0 μM, 6 μM, 9 μM, and 12 μM for 24 h and then subjected to a flow cytometric analysis after DNA staining. […] Accordingly, treatment of HeLa cells with 5c induced a G2/M phase arrest of cell cycle progression.
(§1) For the cell cycle analysis, HeLa cells seeded in a 6-well plate (3 × 10^5 per well) were incubated with different concentrations of compound 5c or 0.1% DMSO for 24 h. Then, the cells were digested with 0.25% trypsin (without EDTA) and were washed twice with PBS, fixed in 70% ethanol overnight, and stained with PI ([…], Sigma) plus 0.2 mg/mL of DNase-free RNase A (Qiagen) for 20 minutes at room temperature. For the annexin V apoptosis assay, HeLa cells seeded in a 6-well plate (3 × 10^5 per well) were incubated with different concentrations of compound 5c or 0.1% DMSO for 24 h. Then, the cells were digested with 0.25% trypsin (without EDTA) and were washed twice with PBS. The cells were then collected and resuspended in 500 μL of the binding buffer. We added 5 μL of annexin V-FITC and PI each into the mixture in the dark. After 20 min of incubation, a flow cytometer (FACSCalibur; Becton Dickinson, Franklin Lakes, NJ, USA) was used to detect apoptosis (FITC Ex/Em = 488/525 nm and PI Ex/Em = 535/615 nm). […]

Experiment [2] relates to HeLa cells. The experiment in a line: Annexin V-FITC/PI apoptosis assay. The experiment is classed as cell-based, human. Particulars: 12 μM.
Excerpt: Apoptosis in cancer cells could be caused by the generation of intracellular ROS [31, 32, 33]. Three methods were utilized to assess the effect of compound 5c on the apoptosis of HeLa cells. First, Hoechst 33342 was utilized to stain the HeLa cells that were pretreated with different concentrations of compound 5c. Then, the cells were observed under a fluorescence microscope. […] Second, an annexin V-FITC/PI double staining method was used to quantitatively detect the effect of compound 5c on cell apoptosis. A quantitative analysis was performed using a flow cytometry analysis. […] Third, the levels of Bcl-xl family proteins, well-known as apoptosis-related proteins, were determined by Western blotting analysis.
as §1, with “PBS.” for “PBS. The cells were then collected and resuspended in 500 μL of the binding buffer. We added 5 μL of annexin V-FITC and PI each into the mixture in the dark. After 20 min of incubation, a flow cytometer (FACSCalibur; Becton Dickinson, Franklin Lakes, NJ, USA) was used to detect apoptosis (FITC Ex/Em = 488/525 nm and PI Ex/Em = 535/615 nm).”

A further experiment has as its system Bcl-xl in HeLa cells. The experiment in a line: Western blot, Bcl-xl. The experiment is classed as cell-based, human. The settings on record: 6–12 μM, 24 h. As for the experimental part:
Protein levels were determined by the standard Western blot assay. HeLa cells were incubated with different concentrations of compound 5c or 0.1% DMSO for 24 h. Cells harvested with trypsin were treated with 1× RIPA lysis buffer (50 mM Tris-HCl, pH 7.4, 150 mM NaCl, 0.25% deoxycholic acid, 1% NP-40, 1 mM ethylenediaminetetraacetate (EDTA), and protease inhibitor PMSF (Solarbio, Beijing, China) to extract the total proteins. Then, an aliquot of proteins from the total cell lysates (4–40 μg/lane) was separated using sodium dodecyl sulfate (8, 10, or 12%) polyacrylamide gel electrophoresis (BioRad Laboratories, Hercules, CA, USA). The aliquot was wet-transferred to a PVDF membrane (BioRad Laboratories, Hercules, CA, USA), blotted with primary antibodies (purchased from Cell Signaling Technology, Danvers, MA, USA) specific for the STAT3 (#12640), p-STAT3 (#9145), AKT (#4691), p-AKT (#4060), Bax (#5023), Bcl-xl (#2764), secondary isotype-specific antibodies (#7074) and glyceraldehyde-3-phosphate dehydro-genase (GAPDH, #2118) as the internal standard overnight; then, they were probed with secondary isotype-specific antibodies for another 2 h at 37 °C. The bound immuno-complexes were detected using a ChemiDOC XRS+ system (BioRad Laboratories, Hercules, CA, USA).

Regarding `N#C/C(=C\c1ccc(C2=CC(=O)c3ccccc3C2=O)o1)C(=O)NCCN1CCOCC1` [Compound 5c, (E)-2-cyano-3-(5-(1,4-dioxo-1,4-dihydronaphthalen-2-yl)furan-2-yl)-N-(2-morpholinoethyl)acrylamide], the concentration for half-maximal inhibition (IC50) with PC3 was 20.5 ± 0.05 µM; in the experiment on PC3 (Homo sapiens, PC-3, 48 h) it was over 20.5 µM. Further, the inhibition at 20 µM with PC3 (Homo sapiens, PC-3, 20 μM, read-out: Inhibition Rate (%) at 20 μM PC3) amounted to 25.54 ± 0.06%. Moreover, the Kd on recombinant STAT3 was 13 µM. Besides, the “HeLa cell population in the G2/M phase” value in the experiment on HeLa cells [1] is 23.88%. In addition, in the experiment with HeLa cells [2], the “percentage of apoptotic cells” value was determined as 46.70%. The “total Bcl-xl levels” value with Bcl-xl in HeLa cells is reported as “significantly decreased”.
